Reference: patent US20260250318A1, “COMPOSITIONS AND METHODS FOR CROSSING THE BLOOD BRAIN BARRIER” (VOYAGER THERAPEUTICS, INC., priority 2022, published 2026)

System: brains, heart, liver, muscle, and DRG of the NHPs
Test: Maturation of TTM-001 and TTM-002 capsids, NGS enrichment in NHP tissues
Assay type: in vivo
From the text: This Example describes maturation of the AAV9 capsid variants, TTM-001 (SEQ ID NO: 981 (amino acid) and 983 (DNA), comprising SEQ ID NO: 941 (encoded by SEQ ID NO: 942)) and TTM-002 (SEQ ID NO: 982 (amino acid) and 984 (DNA), comprising SEQ ID NO: […] (encoded by SEQ ID NO: 944)) in NHPs to further enhance their transduction and biodistribution in the central nervous system as well as other tissues, and evolve the AAV capsid variants to provide further cross-species compatibility. Two approaches were used to mature the TTM-001 and TTM-002 capsid sequences in order to randomize and mutate within and around the peptide insert comprised within loop IV of the capsid variant. […] In the first maturation approach, sets of three contiguous amino acids were randomized across the mutagenesis region in the TTM-001 and TTM-002 sequences, which spanned from position 450 to position 466, numbered according to SEQ ID NO: 981 and 982. In the second maturation approach, mutagenic primers were used to introduce point mutations at a low frequency, scattered across the mutagenesis region in the TTM-001 and TTM-002 sequences ranging from position 449 to position 466, numbered according to SEQ ID NO: 981 and 982. AAV capsid variants arising from each maturation approach for TTM-001 and TTM-002 were pooled together, for subsequent testing and characterization in NHPs.
The library of pooled matured AAV capsid variants generated using the first maturation approach and the second maturation approach for the TTM-001 and TTM-002 AAV capsid variants were injected into two NHPs. […] Following RNA recovery and RT-PCR amplification, a systematic NGS enrichment analysis was performed to calculate the fold enrichment ratio relative to an AAV9 control, and the peptides comprised within the variants were identified.
Following the RNA recovery and NGS analysis from the second maturation approach, approximately 680,000 capsid variants were identified. The 680,000 matured capsid variants were then filtered based on samples with a raw virus count greater than 10 and a coefficient of variance (CV) of less than 1, which was calculated for each peptide across the brain samples taken from the two NHPs. […] Using this filtering criteria, this led to approximately 64,000 matured capsid variants.

[1] = NHP DRG, NGS, relative to AAV9 control
[2] = NHP brain, NGS, relative to AAV9 control
[3] = NHP heart, NGS, relative to AAV9 control
[4] = NHP liver DNA, NGS, relative to AAV9 control
[5] = NHP liver RNA, NGS, TTM-001 and TTM-002 matured AAV capsid variants, relative to AAV9 control
[6] = NHP muscle, NGS, relative to AAV9 control

Sequence	Fold Enrichment relative to AAV9, DRG (NHP) [1] [fold]	Fold Enrichment relative to AAV9, Brain (NHP) [2] [fold]	Fold Enrichment relative to AAV9, Heart (NHP) [3] [fold]	Fold Enrichment relative to AAV9, Liver DNA (NHP) [4] [fold]	Fold Enrichment relative to AAV9, Liver RNA (NHP) [5] [fold]	Fold Enrichment relative to AAV9, Muscle (NHP) [6] [fold]	Fold Enrichment relative to AAV9, DRG (NHP) (NGS fold-enrichment, DRG, NHP, relative to AAV9) [fold]	Fold Enrichment relative to AAV9, Brain (NHP) (NGS fold-enrichment, brain, NHP, relative to AAV9) [fold]	Fold Enrichment relative to AAV9, Heart (NHP) (NGS fold-enrichment, heart, NHP, relative to AAV9) [fold]	Fold Enrichment relative to AAV9, Liver DNA (NHP) (NGS fold-enrichment, liver DNA, NHP, relative to AAV9) [fold]	Fold Enrichment relative to AAV9, Liver RNA (NHP) (NGS fold-enrichment, liver RNA, NHP, relative to AAV9) [fold]	Fold Enrichment relative to AAV9, Muscle (NHP) (NGS fold-enrichment, muscle, NHP, relative to AAV9) [fold]
KFFHGSGSPHSKAQNQQT	0.000	0.000	0.000	0.897	15.412	0.000	–	–	–	–	–	–
KKHLGSGSPHSKAQNQQT	0.000	0.000	0.000	0.658	18.521	0.000	–	–	–	–	–	–
KPARGSGSPHSKAQNQQT	0.000	0.000	0.000	1.391	16.793	0.000	–	–	–	–	–	–
KPFLGSGSPHSKAQNQQT	–	–	–	–	–	–	0.000	0.000	0.000	1.328	10.318	0.000
KPRFGSGSPHSKAQNQQT	0.000	0.000	0.000	0.657	27.203	0.000	–	–	–	–	–	–
KPRWGSGSPHSKAQNQQT	0.000	0.000	375.537	0.386	51.637	0.000	–	–	–	–	–	–
KRFSGSGSPHSKAQNQQT	0.000	0.000	0.000	1.358	11.024	0.000	–	–	–	–	–	–
KRSYGSGSPHSKAQNQQT	0.000	0.000	0.000	2.841	22.474	0.000	–	–	–	–	–	–
KRYNGSGSPHSKAQNQQT	0.000	0.000	0.000	0.806	15.160	0.000	–	–	–	–	–	–
KSRRGSGSPHSKAQNQQT	0.000	0.000	0.000	1.446	16.131	0.000	–	–	–	–	–	–
KTICGRGSPHSKAQNQQT	0.000	0.000	0.000	2.171	18.923	0.000	–	–	–	–	–	–
KTIFDCGSPHSKAQNQQT	0.000	0.000	0.000	1.602	27.844	0.000	–	–	–	–	–	–
KTIKRYGSPHSKAQNQQT	0.000	0.000	0.000	2.022	11.461	0.000	–	–	–	–	–	–
KTINALRSPHSKAQNQQT	0.000	0.000	0.000	1.655	20.053	0.000	–	–	–	–	–	–
KTINCRTSPHSKAQNQQT	0.000	0.000	0.000	1.117	28.301	0.000	–	–	–	–	–	–
KTINFTRSPHSKAQNQQT	0.000	0.000	0.000	3.751	14.908	0.000	–	–	–	–	–	–
KTINGAYSPHRKAQNQQT	0.000	0.000	0.000	1.283	40.969	0.000	–	–	–	–	–	–
KTINGLDSPHRSRQNQQT	0.000	0.000	0.000	0.321	26.403	0.000	–	–	–	–	–	–
KTINGLVSPHRKAQNQQT	0.000	0.000	0.000	2.739	23.417	0.000	–	–	–	–	–	–
KTINGPWSPHRKAQNQQT	0.000	0.000	0.000	0.434	12.103	0.000	–	–	–	–	–	–
KTINGRPSPHGKAQNQQT	0.000	0.000	0.000	0.705	14.442	0.000	–	–	–	–	–	–
KTINGRRSPHGKAQNQQT	0.000	0.000	0.000	3.259	37.728	0.000	–	–	–	–	–	–
KTINGRRSPHMKAQNQQT	0.000	0.000	0.000	3.510	12.136	0.000	–	–	–	–	–	–
KTINGSGSPHCALQNQQT	0.000	0.000	0.000	3.867	11.404	0.000	–	–	–	–	–	–
KTINGSGSPHCPAQNQQT	0.000	0.000	0.000	1.409	13.359	0.000	–	–	–	–	–	–
